Results taken from patent US8937089B2, “Synergistic mixtures of anthranilamide invertebrate pest control agents” (priority 2004, dated 2015).
Where two headings read alike, the source gives them in different places.

Legend:
Type in all cases: in vivo
[1] = system: silverleaf whitefly (Bemisia argentifolii); experiment: Test G: systemic control of silverleaf whitefly, drip irrigation of tomato plant in greenhouse
Description: For evaluating systemic control of silverleaf whitefly (Bemisia argentifolii), each test unit consisted of a 10-inch (25.4 cm) pot with sand, and a tomato plant (var. Tiny Tim) at the 5 to 10 true leaf stage. Oxamyl was in the liquid formulation as Vydate® L and compound 1 was in a wettable powder formulation with 50% active ingredient. Test compounds in approximately 200 mL of water per pot were applied by drip irrigation in the greenhouse. Whitefly activity was evaluated on a naturally occurring population by removing 5 old leaves with clearly visible nymphs. When there were no leaves with clearly visible nymphs, 5 old leaves were removed at random. Leaves were evaluated for dead and live nymphs. For all tests, analysis was conducted by using Fisher's LSD test for means separation, at p=0.05 (see. K. A. Gomez and A. A. Gomez, “Statistical Procedures for Agricultural Research”, 2nd edition, John Wiley & Sons, New York, 680 pp). Mean comparisons were made within each evaluation date only.

[2] = system: beet armyworm (Spodoptera exigua); experiment: Test H: systemic control of beet armyworm, drip irrigation of tomato plant, leaf discs, % mortality and % feeding; conditions: mg ai/pot: Oxamyl 100, Compound 1 20, Oxamyl + Compound 1 100 + 20
Description: For evaluating systemic control of beet armyworm (Spodoptera exigua), each test unit consisted of a 10-inch (25.4 cm) pot filled with sand and containing a tomato plant (var. Tiny Tim) at the 5 to 10 true leaf stage. Oxamyl was in the liquid formulation as Vydate® L and compound 1 was in a wettable powder formulation with 50% active ingredient. Test compounds in approximately 200 mL of water per pot were applied by drip irrigation in the greenhouse. The plants were sampled at indicated date by cutting discs of the leaf material and placing each disc on a layer of agar gel in a 16-well, 1.5 oz. cup tray (B-150-S 0.028 Natural, Clear Pack Co., Franklin Park, Ill. 60131). One beet armyworm larva was added to each cell and the cells were covered. Trays were held in the growth chamber at 25° C., 16-hour light:8-hour dark, 60% relative humidity for 4 days. The percentage of mortality (abbreviated as % Morta.) and percentage of feeding (abbreviated as % feed), were visually assessed; the results are listed in Table 9. For all tests, analysis was conducted by using the LSD test. Mean comparisons were made within each evaluation date only.

[3] = system: cabbage looper (Trichoplusia ni); experiment: Test J: foliar control of cabbage looper, sprayed cabbage leaves, % mortality and % feeding; conditions: for mortality at […]: Trichoplusia ni, foliar, read-out: % mortality (observed)
Description: For evaluating control of beet armyworm (Spodoptera exigua), methomyl was in the liquid formulation as Lannate® LV (29% of active ingredient). Compound 1 was in a water dispersible granules (WDG) formulation with 35% active ingredient. The test compounds were dissolved in water. Enough water was added to make 100 ppm of active ingredient for each compound. Serial dilutions were made to obtain the appropriate concentrations. To obtain the desired mixture concentrations of each compound, twice the desired concentration of each of the two mixture partner compounds were mixed together in equal volumes.
(§1) The diluted solutions of the test compounds were sprayed to run-off on three-week-old tomato plants. The plants were placed on a rotating turntable sprayer (10 rpm). Test solutions were applied using a flat fan air-assisted nozzle (Spraying Systems 122440) at 10 psi (69 kPa). After each treated plant had dried, leaves were excised from the treated plant. The leaves were cut into pieces, which were placed singly into 5.5 cm-by-3.5 cm cells of a sixteen-cell plastic tray. Each cell contained a 2.5-cm square of moistened chromatography paper to prevent desiccation. One insect was placed in each cell. There two trays per treatment. Trays were held in the growth chamber at 25° C., 16-hour light:8-hour dark, 60% relative humidity for 4 days.
(§2) For evaluating foliar control of cabbage looper (Trichoplusia ni), cabbage (var. Stonehead) plants were grown in Metromix potting soil in 10-cm pots in aluminum trays to test size (28 days, 3-4 full leaves). Test compounds were formulated and sprayed on test plants as described for Test I. After drying for 2 hours, the treated leaves were excised and infested with one cabbage looper per cell and covered. The test units were placed on trays and put in a growth chamber at 25° C. and 60% relative humidity for 4 days.

[4] = system: diamondback moth (Plutella xylostella); experiment: whole plant or invertebrate
Description: The test compounds were dissolved in water. […] Serial dilutions were made to obtain the appropriate concentrations. To obtain the desired mixture concentrations of each compound, twice the desired concentration of each of the two mixture partner compounds were mixed together in equal volumes.
as §1, with “After each treated plant had dried, leaves were excised from the treated plant.” left out
as §2, with “evaluating” for “evaluating foliar”, “diamondback moth (Plutella xylostella),” for “cabbage looper (Trichoplusia ni),”, “leaves) the plants were sprayed to the point of runoff using the turntable sprayer as described in Test I.” for “leaves).”

[5] = Day 6, mg ai/pot: Oxamyl 100, Compound 1 20, Oxamyl + Compound 1 100 + 20
[6] = Day 13, mg ai/pot: Oxamyl 100, Compound 1 20, Oxamyl + Compound 1 100 + 20
[7] = Day 20, mg ai/pot: Oxamyl 100, Compound 1 20, Oxamyl + Compound 1 100 + 20
[8] = Day 13 - old growth (first of two heads so printed, c4)
[9] = Day 13 - old growth (first of two heads so printed, c5)
[10] = Day 13 - old growth (second of two heads so printed, c6)
[11] = Day 13 - old growth (second of two heads so printed, c7)

SMILES	% Mortality [1, 5]	Nymphs number [1, 5]	% Mortality [1, 6]	Nymphs number [1, 6]	% Mortality [1, 7]	Nymphs number [1, 7]	% Morta. ([2]; Day 6 new & old)	% feed ([2]; Day 6 new & old)	% Morta. [2, 8]	% feed [2, 9]	% Morta. [2, 10]	% feed [2, 11]	% Morta. ([2]; Day 20 - new growth)	% feed ([2]; Day 20 - new growth)	% Morta. ([2]; Day 20 - old growth)	% feed ([2]; Day 20 - old growth)	other results
CNC(=O)c1cc(Cl)cc(C)c1NC(=O)c1cc(Br)nn1-c1ncccc1Cl [Compound 1, 3-bromo-N-[4-chloro-2-methyl-6-[(methylamino)carbonyl]phenyl]-1-(3-chloro-2-pyridinyl)-1H-pyrazole-5-carboxamide]	44%	316	99%	194	100%	300	99%	0%	100%	0%	97%	0%	100%	0%	100%	0%	mortality at […] ([3]; Compound 1 0.032 ppm): 9%; mortality at […] ([3]; Compound 1 0.057 ppm): 22%; % feeding ([4]; Compound 1 0.007 ppm): 10.0%; % feeding ([4]; Compound 1 0.030 ppm): 0%; mortality at 0.007 ppm ([4]; Plutella xylostella, in Brassica oleracea, Compound 1 0.007 ppm, read-out: % mortality (observed)): 13%; mortality at […] ([4]; Plutella xylostella, in Brassica oleracea, Compound 1 0.013 ppm, read-out: % mortality (observed)): 34%; mortality at 0.03 ppm ([4]; Plutella xylostella, in Brassica oleracea, Compound 1 0.030 ppm, read-out: % mortality (observed)): 78%; mortality at 0.01 ppm ([4]; Plutella xylostella, in Brassica oleracea, rate 0.01 ppm, read-out: % mortality (obs)): 87%; mortality at 0.02 ppm ([4]; Plutella xylostella, in Brassica oleracea, rate 0.02 ppm, read-out: % mortality (obs)): 77%; mortality at 0.04 ppm ([4]; Plutella xylostella, in Brassica oleracea, rate 0.04 ppm, read-out: % mortality (obs)): 93%
COC(=O)N(C(=O)N1CO[C@@]2(C(=O)OC)Cc3cc(Cl)ccc3C2=N1)c1ccc(OC(F)(F)F)cc1 [Indoxacarb]																	% feeding ([3]; Indoxacarb 0.146 ppm): 68%; % mortality (observed) ([3]; Indoxacarb 0.146 ppm): 31%; % feeding ([4]; Indoxacarb 0.147 ppm): 13.8%; % mortality (observed) ([4]; Indoxacarb 0.147 ppm): 33%; % feeding ([4]; Indoxacarb 0.226 ppm): 3.5%; % mortality (observed) ([4]; Indoxacarb 0.226 ppm): 25%; % feeding ([4]; Indoxacarb 0.340 ppm): 0.5%; % mortality (observed) ([4]; Indoxacarb 0.340 ppm): 47%; % feeding ([4]; Indoxacarb 1 ppm): 0.1%; % mortality (observed) ([4]; Indoxacarb 1 ppm): 50%
CNC(=O)O/N=C(\SC)C(=O)N(C)C [Oxamyl]	6%	380	34%	506	28%	404	26%	49%	35%	43%	40%	40%	25%	92%	31%	65%	
